Patent publication US20110229580A1, “COMPOSITIONS AND METHODS FOR NANO-IN-MICRO PARTICLES” (Indian Institute of Technology Bombay, School of …, priority 2010, published 2011)

Assay: Confocal laser scanning microscopy of dye retention in CaCO3 nanoparticles
Format: physicochemical
Conditions: CLSM
Text: Fluorescent images of FITC-dex (70 kDa) loaded CaCO3 nanoparticles were examined using confocal microscopy. Confocal micrographs of micro/nanoparticles were obtained with a flow view confocal laser scanning microscope (CLSM) equipped with a krypton-argon laser (Olympus FluoView™, Japan). An inverted microscope was also used which was equipped with an oil immersion objective lens (40×). The standard filter settings for fluorescence excitation (488 nm) and emission (520 nm) were used.

O=C1OC2(c3ccc(O)cc3Oc3cc(O)ccc32)c2ccc(N=C=S)cc21 [FITC dye]
retention in CaCO3 nanoparticles: not retained
